Results: US6380226B1, “Salts of an anti-migraine indole derivatives” (Pfizer Inc, priority 1994, dated 2002)
Entries after “also recorded” stand apart in the source; their conditions may differ. Counter-ions that a name gives are not always drawn. Like-named read-outs stand apart in the source and are kept apart here.

Experiments:
Assay type in all cases: physicochemical
[1] = Hygroscopicity study: moisture change by weight analysis and Karl Fischer titrimetry; settings: for colour change of sample accompanying water uptake: hygroscopicity study, 40° C./75% RH
Experimental: (§1) Hygroscopicity/Solid State Stability Studies Samples (ca 10 mg) were sieved (250 μm) and then stored at each of the following conditions of temperature (T) and relative humidity (RH) for up to 4 weeks: 30° C. at II, 75 and 90% RH and 40° C. at II, 75 and 90% RH, the required humidities being achieved using the appropriate saturated salt solution in a dessicator. Measurements of water content changes were conducted by weight analysis using a microbalance and by Karl Fischer titrimetry (KFT), and chemical and physical stability evaluation by high performance liquid chromatography (HPLC) and DSC. KFT was performed using a Mitsubishi moisturemeter and ca 10 mg of each sample.

[2] = Solid state stability study: chemical and physical stability by HPLC and DSC; settings: for solid state instability (associated with water uptake): hygroscopicity studies
Experimental: as §1, with “DSC. HPLC analyses were” for “DSC. KFT was”, “performed on” for “performed using”, “a LDC isocratic system under the following conditions: column—Novapak C18, 5μm, 15 cm; mobile phase—pH 6.0, 60:40 v/v 0.02M KH2PO4 (0.5% triethylamine): methanol; detection—UV (254 nm); flow rate—1.0 ml/min; injection volume —20 μl; sample 0.1 mg/ml in mobile phase.” for “a Mitsubishi moisturemeter and ca 10 mg of each sample.”

Compression studies = settings: for behaviour on compression (colour change, melting, punch filming): 5 tonnes for 1 minute, 13 mm punch and die set
Experimental: Samples (200 mg) were compressed using a bench IR press (Graseby Specac Model 15.011) at 5 tonnes for 1 minute using a 13 mm punch and die set, then assessed for colour change and evidence of melting. Further analysis (DSC and HPLC) was conducted after grinding of the compact using a mortar and pestle.

[3] = Polymorphic conversion by DSC
Experimental: Samples (ca 5 mg) of each form were analysed using a Perkin-Elmer 7 Series thermal analyser at a scanning rate of 20° C. per minute. For identification of the respective endotherms, shown in the representative DSC thermograms of FIGS. 3A and 3B, vide supra. DSC was used to determine both the polymorphic conversions of the β-forms of the hydrobromide and hemisulphate salts to their respective α-forms, and also the conversion of the α-form of the hydrochloride salt to its β-form which is believed to be an anhydrate-hydrate transition.

[4] = listed as α-form of the hydrobromide salt
[5] = listed as α-form of the hemisulphate salt
[6] = listed as β-form of the hemisulphate salt

CN1CCC[C@@H]1Cc1c[nH]c2ccc(CCS(=O)(=O)c3ccccc3)cc12 [α-HBr, 3-(N-Methyl-2(R)-pyrrolidinylmethyl)-5-(2-phenylsulphonylethly)-1H-indole hydrobromide, α-form]
weight over the course of the hygroscopicity study (in words) ([1]; 30 and 40° C., 11, 75 and 90% RH, up to 4 weeks): relatively stable weights | moisture change determined by % weight change ([1]; T/RH 30/11 (30° C., 11% RH), Week 1): −0.45% | moisture change determined by % weight change ([1]; T/RH 30/11, Week 2): −0.51% | moisture change determined by % weight change ([1]; T/RH 30/11, Week 3): +0.20% | moisture change determined by % weight change ([1]; T/RH 30/11, Week 4): +0.09% | moisture change determined by % weight change ([1]; T/RH 30/75, Week 1): +0.08% | moisture change determined by % weight change ([1]; T/RH 30/75, Week 2): +0.01% | moisture change determined by % weight change ([1]; T/RH 30/75, Week 3): +0.17% | moisture change determined by % weight change ([1]; T/RH 30/75, Week 4): +0.25% | moisture change determined by % weight change ([1]; T/RH 30/90, Week 1): +0.53% | moisture change determined by % weight change ([1]; T/RH 30/90, Week 2): +0.46% | moisture change determined by % weight change ([1]; T/RH 30/90, Week 3): +0.50% | moisture change determined by % weight change ([1]; T/RH 30/90, Week 4): +0.49% | moisture change determined by % weight change ([1]; T/RH 40/11, Week 1): −0.48% | moisture change determined by % weight change ([1]; T/RH 40/11, Week 2): +0.58% | moisture change determined by % weight change ([1]; T/RH 40/11, Week 3): −0.51% | moisture change determined by % weight change ([1]; T/RH 40/11, Week 4): −0.49% | moisture change determined by % weight change ([1]; T/RH 40/75, Week 1): +0.06% | moisture change determined by % weight change ([1]; T/RH 40/75, Week 2): +0.23% | moisture change determined by % weight change ([1]; T/RH 40/75, Week 3): 0.00% | moisture change determined by % weight change ([1]; T/RH 40/75, Week 4): +0.11% | moisture change determined by % weight change ([1]; T/RH 40/90, Week 1): +0.87% | moisture change determined by % weight change ([1]; T/RH 40/90, Week 2): +1.27% | moisture change determined by % weight change ([1]; T/RH 40/90, Week 3): +1.16% | moisture change determined by % weight change ([1]; T/RH 40/90, Week 4): +1.23% | hygroscopicity (in words) [1, 4]: lack of hygroscopicity | change in DSC profile ([2]; T=40° C./RH=90% samples): No change | chemical stability by HPLC analysis ([2]; all of the conditions studied (30 and 40° C., 11, 75, 90% RH, up to 4 weeks)): confirmed its stability | behaviour on compression (colour change, melting, punch filming) (Compression studies; [4]): no evidence of a change in sample appearance or punch filming | changes to the thermogram (melting point, enthalpy of fusion) after compression or grinding (Compression studies; DSC after compression or grinding): no changes | polymorphic conversion [3, 4]: No polymorphic transitions

CN1CCC[C@@H]1Cc1c[nH]c2ccc(CCS(=O)(=O)c3ccccc3)cc12 [α-form of the hydrochloride salt, 3-(N-methyl-2(R)-pyrrolidinylmethyl)-5-(2-phenylsulphonylethyl)-1H-indole]
water uptake (in words) ([1]; T 40° C., RH 75%, seven days (1 week)): a significant amount of water had been taken up; also recorded: picked up a significant amount of moisture | behaviour on compression (colour change, melting, punch filming) (Compression studies): did not melt on compaction | polymorphic conversion [3]: converts to the hydrated β-form; also recorded: transformation of the α-form to the β-form

CN1CCC[C@@H]1Cc1c[nH]c2ccc(CCS(=O)(=O)c3ccccc3)cc12 [α-½H2SO4, 3-(N-methyl-2(R)-pyrrolidinylmethyl)-5-(2-phenylsulphonylethyl)-1H-indole]
moisture change determined by % weight change ([1]; T/RH 40/75, Week 1): +6.0% | moisture change determined by % weight change ([1]; T/RH 40/75, Week 2): +4.85% | moisture change determined by % weight change ([1]; T/RH 40/75, Week 3): +5.46% | moisture change determined by % weight change ([1]; T/RH 40/75, Week 4): +4.04% | colour change of sample accompanying water uptake [1, 5]: no concomitant colour | hygroscopicity (in words) [1, 5]: extremely hygroscopic | solid state instability (associated with water uptake) [2, 5]: does not display solid state instability

CN1CCC[C@@H]1Cc1c[nH]c2ccc(CCS(=O)(=O)c3ccccc3)cc12 [β-form of the hydrobromide salt]
polymorphic conversion [3]: undergoes polymorphic conversion to a higher melting form

CN1CCC[C@@H]1Cc1c[nH]c2ccc(CCS(=O)(=O)c3ccccc3)cc12 [β-form of the hydrochloride salt, 3-(N-methyl-2(R)-pyrrolidinylmethyl)-5-(2-phenylsulphonylethyl)-1H-indole]
hygroscopicity (in words) ([1]; T=40° C./RH=75%, weight change and KFT at week 4): non-hygroscopic | solid state instability (associated with water uptake) [2]: does not display solid state instability; also recorded: no solid state instability being detected | behaviour on compression (colour change, melting, punch filming) (Compression studies): melting and sticking of the disk to the punches were observed; also recorded: melts and causes sticking of the disk to the punches

CN1CCC[C@@H]1Cc1c[nH]c2ccc(CCS(=O)(=O)c3ccccc3)cc12 [β-½H2SO4, 3-(N-methyl-2(R)-pyrrolidinylmethyl)-5-(2-phenylsulphonylethyl)-1H-indole]
moisture change determined by % weight change ([1]; T/RH 40/75, Week 1): +1.33% | moisture change determined by % weight change ([1]; T/RH 40/75, Week 2): +3.79% | moisture change determined by % weight change ([1]; T/RH 40/75, Week 3): +3.38% | moisture change determined by % weight change ([1]; T/RH 40/75, Week 4): +1.69% | colour change of sample accompanying water uptake [1, 6]: change in colour of the sample from cream to yellow | hygroscopicity (in words) ([1]; relative humidities (RH) higher than 50%): very hygroscopic | behaviour on compression (colour change, melting, punch filming) (Compression studies; [6]): undergoes a colour change on compression and causes punch-filming during tabletting; also recorded: undergoes a colour change on compression and also causes punch filming on compaction | polymorphic conversion [3, 6]: water uptake can cause polymorphic conversion to an alternative form; also recorded: polymorphic conversion to the α-form
